Values quoted from earlier work in patent publication US20110053874A1, “USE OF FLAVONOIDE COMPOUNDS FOR THE PROPHYLAXIS AND THERAPY OF ISCHAEMIC OR INFLAMMATORY HEART AND CARDIOVASCULAR DISEASES” (BOEHRINGER INGELHEIM INTERNATIONAL GMBH, priority 2008, published 2011).

Experiments:
[1] = human, oral
[2] = in vivo

| Compound | form present in the plasma after being taken orally and absorbed through the intestine [1] | absorption [2] |
| --- | --- | --- |
| O=c1c(O[C@@H]2O[C@H](CO)[C@@H](O)[C@H](O)[C@H]2O)c(-c2ccc(O)c(O)c2)oc2cc(O)cc(O)c12 [quercetin glucoside, quercetin-3-O-β-D-glucoside] | almost completely in the form of their respective glucuronides | – |
| O=c1c(O[C@@H]2O[C@H](CO)[C@@H](O)[C@H](O)[C@H]2O)c(-c2ccc(O)cc2)oc2cc(O)cc(O)c12 [kaempferol glucoside, kaempferol-3-O-β-D-glucoside] | almost completely in the form of their respective glucuronides | – |
| O=c1c(O)c(-c2ccc(O)c(O)c2)oc2cc(O)cc(O)c12 [Quercetin] | – | only absorbed to a small extent |
